Source: patent US11993574B2, “Pyrazole and imidazole compounds for inhibition of IL-17 and RORgamma” (REATA PHARMACEUTICALS, INC., priority 2018, dated 2024)
pIC50: −log10 of the molar value.

Columns and labels:
Format in all cases: cell-based
[1] = system: IL-17A; assay: IL-17 release from differentiated primary human T-cells (IL-17A HTRF assay); conditions: primary human CD4+ T cells differentiated into Th17 cells, 45-hour incubation, IL-17A in supernatant; read-out: hIL17 IC50
How it was run: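 Primary human CD4+ T cells (~2×10^5/well) given compound (2–500 or 4–1000 nM, 0.1% DMSO), CD3/CD28-activated and Th17-differentiated (TGF-β, IL-6, IL-23, IL-1β) for 45 h at 37° C. Supernatant IL-17A by HTRF against standard curve, normalized to vehicle; IC50 by variable-slope regression, with parallel CyQuant viability.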

[2] = molecular target: T1, Human RAR-related Orphan Receptor Gamma (RORγ) (Homo sapiens, UniProt P51449); assay: RORγ assay (GAL4-RORγ hybrid luciferase reporter, Indigo Biosciences); conditions: inverse-agonist activity, GAL4-RORγ reporter cells, 23 hours
T1 sequence (P51449 269-508 limits assumed): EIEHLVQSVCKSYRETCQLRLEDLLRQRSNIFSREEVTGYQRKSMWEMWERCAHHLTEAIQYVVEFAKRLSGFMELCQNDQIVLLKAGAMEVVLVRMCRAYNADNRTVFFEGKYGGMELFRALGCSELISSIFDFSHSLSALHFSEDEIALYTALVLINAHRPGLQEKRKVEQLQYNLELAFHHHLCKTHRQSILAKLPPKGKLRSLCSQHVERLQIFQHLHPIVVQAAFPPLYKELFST
How it was run: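 […]engineered human reporter cell line expressing GAL4-DBD/RORγ-LBD hybrid with GAL4-UAS luciferase; constitutive activity measured as inverse agonism. Cells treated with compound (7.8-2000 nM) for 23 h at 37 °C; luminescence normalized to DMSO, IC50 by variable-slope fit, with parallel viability readout to flag non-specific inhibition.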

[3] = system: Nrf2 transcription factor; assay: AREc32 luciferase reporter assay; conditions: Homo sapiens; AREc32 cells, 19 hours; concentration required to increase GST ARE luciferase reporter activity by 2-fold; read-out: NRF2 ARE 2-Fold (EC2×)
How it was run: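 AREc32 cells (MCF-7 with firefly luciferase under eight rat GSTA2 ARE copies) treated 19 h with compound (0.4-200 nM or 3.9-2000 nM) in triplicate. Luminescence normalized to DMSO as fold-induction, capped at 50-fold. EC2× = concentration giving 2-fold reporter increase, interpolated from variable-slope fit.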

| Structure (SMILES) | pIC50 [1] | pIC50 [2] | EC (2-fold) [3] [µM] |
| --- | --- | --- | --- |
| C[C@H]1C(=O)C(C#N)=C[C@@]2(C)c3nc(-c4ccc(Cl)c(Cl)c4)n(-c4cnn(C)c4)c3CC[C@H]12 [T158] | 6.62 | 6.91 | 1.09 |
| C[C@H]1C(=O)C(C#N)=C[C@@]2(C)c3nc(-c4ccnc(N5CCOCC5)c4)n(-c4cnn(C)c4)c3CC[C@H]12 [T160] | 6.33 | 6.25 | > 2 |
| CC(C)c1ccc(-c2nc3c(n2C(C)C)CC[C@@H]2[C@@H](C)C(=O)C(C#N)=C[C@@]32C)cc1 [T162] | 6.86 | 6.85 | 1.12 |
| CC(C)c1ccc(-c2nc3c(n2C)CC[C@@H]2[C@@H](C)C(=O)C(C#N)=C[C@@]32C)cc1 [T163] | 6.59 | 6.82 | 1.13 |
| COCCn1c(-c2ccc(C(C)C)cc2)nc2c1CC[C@@H]1[C@@H](C)C(=O)C(C#N)=C[C@@]21C [T164] | 6.80 | 6.63 | > 2 |
| CC(C)c1ccc(-c2nc3c(n2CCOCc2ccccc2)CC[C@@H]2[C@@H](C)C(=O)C(C#N)=C[C@@]32C)cc1 [T165] | 6.68 | 6.33 | > 2 |
| CC(C)c1ccc(-c2nc3c(n2Cc2ccccc2)CC[C@@H]2[C@@H](C)C(=O)C(C#N)=C[C@@]32C)cc1 [T166] | 7.20 | 6.64 | 1.68 |
| CC(C)c1ccc(-c2nc3c(n2Cc2ccccc2F)CC[C@@H]2[C@@H](C)C(=O)C(C#N)=C[C@@]32C)cc1 [T168] | 7.37 | 6.53 | 1.29 |
| CC(C)c1ccc(-c2nc3c(n2Cc2ccc(Cl)cc2)CC[C@@H]2[C@@H](C)C(=O)C(C#N)=C[C@@]32C)cc1 [T169] | 7.48 | 6.43 | 1.01 |
| CC(C)c1ccc(-c2nc3c(n2Cc2ccccn2)CC[C@@H]2[C@@H](C)C(=O)C(C#N)=C[C@@]32C)cc1 [T170] | 7.14 | 6.99 | 0.602 |
| CC(C)c1ccc(-c2nc3c(n2Cc2ccncc2)CC[C@@H]2[C@@H](C)C(=O)C(C#N)=C[C@@]32C)cc1 [T171] | 6.80 | 6.59 | 1.01 |
| CC(C)c1ccc(-c2nc3c(n2CCO)CC[C@@H]2[C@@H](C)C(=O)C(C#N)=C[C@@]32C)cc1 [T172] | < 6.30 | 6.75 | > 2 |
| CC(C)c1ccc(-c2nc3c([nH]2)CC[C@@H]2[C@@H](C)C(=O)C(C#N)=C[C@@]32C)cc1 [T173] | 6.92 | 5.70 | 0.884 |
| Cc1cc(-c2ccc(-n3nc(-c4ccncn4)c4c3[C@]3(C)C=C(C#N)C(=O)[C@H](C)[C@H]3CC4)cc2)cnn1 [T176] | 6.89 | 6.92 | 0.979 |
| C[C@H]1C(=O)C(C#N)=C[C@@]2(C)c3c(c(-c4ccc(F)cc4)nn3-c3ccc(-c4cccnn4)cc3)CC[C@H]12 [T178] | 7.51 | 7.19 | 0.342 |

The remaining compounds from weak to strong by pIC50 [1], led by results:

| pIC50 [1] | pIC50 [2] | Structure (SMILES) | EC (2-fold) [3] [µM] |
| --- | --- | --- | --- |
| 6.43 | 5.80 | CC(=O)n1c(-c2ccc(C(C)C)cc2)nc2c1CC[C@@H]1[C@@H](C)C(=O)C(C#N)=C[C@@]21C [T174] | 0.923 |
| 6.56 | 6.70 | C[C@H]1C(=O)C(C#N)=C[C@@]2(C)c3nc(-c4cccc(-c5ccncc5)c4)n(-c4cnn(C)c4)c3CC[C@H]12 [T159] | 1.08 |
| 6.95 | 6.82 | CC(C)c1ccc(-c2nc3c(n2C2CC2)CC[C@@H]2[C@@H](C)C(=O)C(C#N)=C[C@@]32C)cc1 [T161] | 1.02 |
| 7.12 | 6.94 | Cc1nc(-c2ccc(-n3nc(-c4cccnc4)c4c3[C@]3(C)C=C(C#N)C(=O)[C@H](C)[C@H]3CC4)cc2)no1 [T184] | 0.398 |
| 7.17 | 6.95 | C[C@H]1C(=O)C(C#N)=C[C@@]2(C)c3c(c(-c4ccc(F)cc4)nn3-c3ccc(-c4ncon4)cc3)CC[C@H]12 [T183] | 0.526 |
| 7.28 | 6.61 | CC(C)c1ccc(-c2nc3c(n2Cc2ccc(F)cc2)CC[C@@H]2[C@@H](C)C(=O)C(C#N)=C[C@@]32C)cc1 [T167] | 1.11 |
| 7.31 | 7.26 | C[C@H]1C(=O)C(C#N)=C[C@@]2(C)c3c(c(-c4cccnc4)nn3-c3ccc(-c4ccnc(CF)c4)cc3)CC[C@H]12 [T180] | 0.308 |
| 7.35 | 7.43 | Cc1cnnc(-c2ccc(-n3nc(-c4ccc(F)cc4)c4c3[C@]3(C)C=C(C#N)C(=O)[C@H](C)[C@H]3CC4)cc2)c1 [T179] | 0.232 |
| 7.49 | 7.02 | Cc1nc(-c2ccc(-n3nc(-c4ccc(F)cc4)c4c3[C@]3(C)C=C(C#N)C(=O)[C@H](C)[C@H]3CC4)cc2)no1 [T182] | 0.249 |
| 7.62 | 7.22 | C[C@H]1C(=O)C(C#N)=C[C@@]2(C)c3c(c(-c4ccc(F)cc4)nn3-c3ccc(-c4ccnc(CF)c4)cc3)CC[C@H]12 [T181] | 0.25 |
| 8.05 | 7.28 | Cc1cc(-c2ccc(-n3nc(-c4ccc(F)cc4)c4c3[C@]3(C)C=C(C#N)C(=O)[C@H](C)[C@H]3CC4)cc2)cnn1 [T177] | 0.271 |
